The values that follow come from patent US20190388421A1, “NOVEL COMPOUNDS AND PHARMACEUTICAL COMPOSITIONS THEREOF FOR THE TREATMENT OF FIBROSIS” (Galapagos NV, priority 2016, published 2019).

For test [1], the system named is HFL-1 cells. Briefly: IL8 assay (S1P induced IL-8 production). Conditions: Homo sapiens, HFL1; S1P (1 μM) induced IL-8, HFL-1 cells, without HSA. It is filed as cell-based. In a few lines: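 Serum-starved human fetal lung fibroblasts were preincubated with compound for 1 h at 37° C (10-point, 1/3 dilution, top 30 μM, 0.3% DMSO). S1P at 1 μM final was then added for 16–24 h, and IL-8 in the supernatant was measured by ELISA.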

Test [2] deals with T1, human GPCR sphingosine 1-phosphate receptor 5 (S1PR5) (Homo sapiens, UniProt Q9H228).
T1 construct: host or cells: CHO
Briefly: S1PR5 selectivity assay (Ca2+ flux, antagonist, S1PR5 specific agonist trigger). It is filed as cell-based. As to conditions: S1P5 antagonist EC50, CHO cells overexpressing human S1PR5 and Gq protein. In short, it runs like this:
(§1)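 CHO cells stably overexpressing human S1PR1 or S1PR5 with Gq were preincubated with compound 15 min at 37 °C, then stimulated with S1P at EC80 (S1PR1) or an S1PR5-specific agonist (S1PR5). Ca2+ fluorescence was read for 3 min; 10-point 1/3 dilutions from 20 μM final, normalized to vehicle and EC80 trigger, gave EC50.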

A further test concerns the target T2, S1PR2 (Homo sapiens, UniProt O95136).
T2 construct: expressed in transfected cells
Briefly: GTP-γS binding assay ([35S]GTPγS, S1P at EC80, S1PR2 membranes). It is filed as biochemical. As to conditions: membranes from stable cell line over expressing S1PR2, read-out: S1PR2 EC. In short, it runs like this: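 Compounds tested against S1P at its EC80 on membranes (2.5 μg/well) from a stable S1PR2-overexpressing line, pre-incubated with 1 μM GDP 15 min at 4 °C. Buffer: 20 mM Tris pH 7.5, 10 mM MgCl2, 100 mM NaCl, 0.1% fatty-acid-free BSA, 50 ug/ml saponin. Incubated 4 h at room temperature; [35S]GTPγS binding read by WGA SPA beads.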

In test [3] the target is T3, human GPCR sphingosine 1-phosphate receptor 1 (S1PR1) (Homo sapiens, UniProt P21453).
T3 construct: host or cells: CHO
Briefly: S1PR1 selectivity assay (Ca2+ flux, antagonist). As to conditions: S1P1 antagonist EC50, CHO cells overexpressing human S1PR1 and Gq protein. It is filed as cell-based. In short, it runs like this: as §1

In test [4] the target is T4, human GPCR sphingosine 1-phosphate receptor 2 (S1PR2) (Homo sapiens, UniProt O95136).
T4 construct: host or cells: CHO
Briefly: S1P2 antagonist assay (Ca2+ flux, S1P at EC80). The format is cell-based. As to conditions: CHO-S1PR2 cells, highest concentration 20 μM. In a few lines:
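CHO cells stably overexpressing human S1PR2, serum-starved 1 h and loaded with Fluo8 dye, were read for 3 min after compound addition, then stimulated with S1P at EC80 after 15 min at 37 °C. Top concentration 20 μM in a 10-point 1/3 series; Ca2+ fluorescence ratio normalized to vehicle and S1P EC80, giving EC50.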

The subject of test [5] is HFL-1 cells. Briefly: IL8 assay in the presence of Human Serum Albumin. As to conditions: HFL1, S1P (5 μM) induced IL-8, HFL-1 cells, with 2% HSA, read-out: HSA IL8 EC50. The format is cell-based. In short, it runs like this:
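Cells serum-starved with 1.95% HSA, pre-treated 1 h with compound (10-point 1/3 dilution from 30 μM, 0.3% DMSO), then stimulated with 5 μM S1P for 16 to 24 h at 37° C. Supernatant IL-8 measured by ELISA.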

T3 sequence (P21453 whole entry): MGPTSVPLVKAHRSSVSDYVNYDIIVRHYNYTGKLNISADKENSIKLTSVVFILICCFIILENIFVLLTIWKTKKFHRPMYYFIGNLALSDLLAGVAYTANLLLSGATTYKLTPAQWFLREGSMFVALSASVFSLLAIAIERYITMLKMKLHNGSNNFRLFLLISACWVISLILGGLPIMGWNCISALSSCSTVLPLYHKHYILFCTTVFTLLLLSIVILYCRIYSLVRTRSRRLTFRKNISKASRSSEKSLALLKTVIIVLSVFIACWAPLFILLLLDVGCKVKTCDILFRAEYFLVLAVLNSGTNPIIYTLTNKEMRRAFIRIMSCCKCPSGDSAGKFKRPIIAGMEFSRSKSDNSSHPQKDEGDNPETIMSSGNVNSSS
T1 sequence (Q9H228 whole entry): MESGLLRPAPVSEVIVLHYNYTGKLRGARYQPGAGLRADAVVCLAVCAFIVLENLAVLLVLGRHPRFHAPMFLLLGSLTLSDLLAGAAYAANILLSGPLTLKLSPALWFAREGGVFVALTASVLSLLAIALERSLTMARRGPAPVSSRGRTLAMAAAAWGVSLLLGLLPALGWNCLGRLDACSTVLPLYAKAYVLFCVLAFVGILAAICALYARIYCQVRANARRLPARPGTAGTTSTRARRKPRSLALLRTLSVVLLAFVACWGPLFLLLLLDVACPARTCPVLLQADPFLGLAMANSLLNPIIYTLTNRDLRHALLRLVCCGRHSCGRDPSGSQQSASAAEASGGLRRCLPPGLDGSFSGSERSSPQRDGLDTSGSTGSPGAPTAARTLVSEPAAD
T2 sequence (O95136 whole entry): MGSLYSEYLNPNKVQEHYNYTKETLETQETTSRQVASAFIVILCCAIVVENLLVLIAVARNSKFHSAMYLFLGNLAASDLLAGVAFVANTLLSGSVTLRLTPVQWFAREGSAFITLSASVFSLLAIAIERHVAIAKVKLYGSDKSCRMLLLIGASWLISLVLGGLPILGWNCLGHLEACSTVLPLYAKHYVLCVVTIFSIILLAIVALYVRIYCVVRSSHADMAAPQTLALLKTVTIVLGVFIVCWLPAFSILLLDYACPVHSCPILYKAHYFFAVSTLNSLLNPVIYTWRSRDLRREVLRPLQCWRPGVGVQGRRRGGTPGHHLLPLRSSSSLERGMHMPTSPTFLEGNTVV
T4 sequence (O95136 whole entry): as above

`Cc1cc(CNC(=O)Nc2cc(Cl)nc(OCC(F)F)c2)nnc1N1CC(S(C)(=O)=O)C1` [Compound 92, 1-[2-chloro-6-(2,2-difluoroethoxy)-4-pyridyl]-3-[[5-methyl-6-(3-methylsulfonyl-azetidin-1-yl)pyridazin-3-yl]methyl]urea]: the EC50 is 432 nM with HFL-1 cells [1]; not below 19800 nM in test [2]; 469 nM at S1PR2; not below 19800 nM in test [3]; 188 nM in test [4]. Also, the IC50 in the test with HFL-1 cells [5] is 10000 nM.

Turning to `CCOc1cc(NC(=O)NCc2cc(C)c(-c3cnn(C)c3C)nn2)cc(C(F)(F)F)n1` [Compound 69], the EC50 in the test with HFL-1 cells [1] is 108 nM; in test [2], not below 19800 nM; at S1PR2, 751 nM; in test [3], not below 19800 nM; in test [4], 945 nM. Further, in the test with HFL-1 cells [5], the IC50 stood at 9950 nM.

In the case of `Cc1cc(CNC(=O)Nc2cc(OCC(F)F)nc(N3CC(F)(F)C3)c2)nnc1-c1cn(C)nc1C(F)(F)F` [Compound 48, 1-[2-(3,3-difluoroazetidin-1-yl)-6-(2,2-difluoroethoxy)-4-pyridyl]-3-[[5-methyl-6-[1-methyl-3-(trifluoromethyl)pyrazol-4-yl]pyridazin-3-yl]methyl]urea], the EC50 was 23.9 nM with HFL-1 cells [1]; not below 19800 nM in test [2]; 154 nM on S1PR2; 5100 nM in test [3]; 27.1 nM in test [4]. In addition, in the test with HFL-1 cells [5], the IC50 was 104 nM.

For `CCOc1cc(NC(=O)NCc2cc(C)c(-c3cn(C)nc3C(F)(F)F)nn2)cc(Cl)n1` [Compound 2, 1-(2-Chloro-6-ethoxy-pyridin-4-yl)-3-[5-methyl-6-(1-methyl-3-trifluoromethyl-1H-pyrazol-4-yl)-pyridazin-3-ylmethyl]-urea], the EC50 in the test on HFL-1 cells [1] came out at 1.5 nM; in test [2], 4600 nM; at S1PR2, 22.4 nM; in test [3], 4540 nM; in test [4], 8.5 nM. In the test on HFL-1 cells [5], the IC50 turned out to be 25.1 nM.

With `CCOc1cc(NC(=O)NCc2cc(C)c(-c3cn(C)nc3C(F)(F)F)nn2)cc(C#N)n1` [Compound 18, 1-(2-cyano-6-ethoxy-4-pyridyl)-3-[[5-methyl-6-[1-methyl-3-(trifluoromethyl)pyrazol-4-yl]pyridazin-3-yl]methyl]urea], the EC50 was 4.6 nM in the test with HFL-1 cells [1]; not below 19800 nM in test [2]; 35.8 nM on S1PR2; 6610 nM in test [3]; 10.9 nM in test [4]. The IC50 in the test with HFL-1 cells [5] is 29 nM.

On to `CN(C)c1cc(CNC(=O)Nc2cc(Cl)nc(OCC(F)F)c2)nnc1-c1cn(C)nc1C(F)(F)F` [Compound 63, 1-[2-chloro-6-(2,2-difluoroethoxy)-4-pyridyl]-3-[[5-(dimethylamino)-6-[1-methyl-3-(trifluoromethyl)pyrazol-4-yl]pyridazin-3-yl]methyl]urea], for which the EC50 came to 55.4 nM in the test with HFL-1 cells [1]; 11000 nM in test [2]; 298 nM at S1PR2; 2080 nM in test [3]; 66.8 nM in test [4]. In addition, in the test on HFL-1 cells [5], the IC50 was determined as 829 nM.

As for `CCOc1nc(C)cc(N/C(=N/C#N)NCc2cc(C)c(-c3cn(C)nc3C(F)(F)F)nn2)c1C` [Compound 78, 2-cyano-1-(2-ethoxy-3,6-dimethyl-4-pyridyl)-3-[[5-methyl-6-[1-methyl-3-(trifluoromethyl)pyrazol-4-yl]pyridazin-3-yl]methyl]guanidine], the EC50 with HFL-1 cells [1] is 1090 nM; in test [2], not below 19800 nM; at S1PR2, 863 nM; in test [3] it was not below 19800 nM; in test [4] it was 106 nM. The IC50 in the test with HFL-1 cells [5] amounted to 1250 nM.

As to `Cc1cc(CNC(=O)Nc2cc(N3CC(F)(F)C3)nc(C(F)(F)F)c2)nnc1-c1cn(C)nc1C(F)(F)F` [Compound 47], the EC50 in the test with HFL-1 cells [1] is 4.6 nM; in test [2], not below 19800 nM; at S1PR2, 34.5 nM; in test [3], 6610 nM; in test [4], 9.3 nM. In addition, the IC50 in the test with HFL-1 cells [5] was 42.4 nM.

For `CCOc1nc(C(F)(F)F)cc(NC(=O)NC(C)c2cc(C)c(-c3cn(C)nc3C(F)(F)F)nn2)c1C` (stereo not drawn) [Compound 45, 1-[2-ethoxy-3-methyl-6-(trifluoromethyl)-4-pyridyl]-3-[1-[5-methyl-6-[1-methyl-3-(trifluoromethyl)pyrazol-4-yl]pyridazin-3-yl]ethyl]urea], the EC50 in the test on HFL-1 cells [1] is 41.1 nM; in test [2], 6610 nM; on S1PR2 it was 211 nM; in test [3], not below 19800 nM; in test [4] it was 19.7 nM. Further, the IC50 in the test on HFL-1 cells [5] was 84.2 nM.

Regarding `CCOc1cc(NC(=O)NCc2cc(C)c(-c3cn(C4CCOC4)nc3C(F)(F)F)nn2)cc(C(F)(F)F)n1` (stereo not drawn) [Compound 52, 1-[2-ethoxy-6-(trifluoromethyl)-4-pyridyl)-3-[[5-methyl-6-[1-tetrahydrofuran-3-yl-3-(trifluoromethyl)pyrazol-4-yl]pyridazin-3-yl]methyl]urea], the EC50 in the test with HFL-1 cells [1] was found to be 7.8 nM; in test [2], 6620 nM; at S1PR2, 70.2 nM; in test [3] it was 5890 nM; in test [4], 11.4 nM. In addition, the IC50 in the test on HFL-1 cells [5] came out at 79.3 nM.

`CCOc1cc(NC(=O)NC(C)c2cc(C)c(-c3cn(C)nc3C(F)(F)F)nn2)cc(Cl)n1` (stereo not drawn) [Compound 3, 1-(2-chloro-6-ethoxy-4-pyridyl)-3-[1-[5-methyl-6-[1-methyl-3-(trifluoromethyl)pyrazol-4-yl]pyridazin-3-yl]ethyl]urea]: the EC50 with HFL-1 cells [1] is 22 nM; in test [2] it was 6610 nM; at S1PR2, 115 nM; in test [3], not below 19800 nM; in test [4], 26 nM. Further, the IC50 in the test on HFL-1 cells [5] came out at 478 nM.

On to `Cc1cc(NC(=NC#N)NCc2cc(C)c(-c3cn(C)nc3C(F)(F)F)nn2)c(C)c(OCC(F)F)n1` [Compound 79, 2-cyano-1-[2-(2,2-difluoroethoxy)-3,6-dimethyl-4-pyridyl]-3-[[5-methyl-6-[1-methyl-3-(trifluoromethyl)pyrazol-4-yl]pyridazin-3-yl]methyl]guanidine], for which the EC50 was 439 nM in the test on HFL-1 cells [1]; not below 19800 nM in test [2]; 2130 nM on S1PR2; not below 19800 nM in test [3]; 546 nM in test [4]. In addition, the IC50 in the test on HFL-1 cells [5] is 7040 nM.

On to `Cc1cc(CNC(=O)Nc2cc(OCCO)nc(C(F)(F)F)c2)nnc1-c1cn(C)nc1C(F)(F)F` [Compound 4, 1-[2-(2-hydroxyethoxy)-6-(trifluoromethyl)-4-pyridyl]-3-[[5-methyl-6-[1-methyl-3-(trifluoromethyl)pyrazol-4-yl]pyridazin-3-yl]methyl]urea], for which the EC50 in the test with HFL-1 cells [1] is 234 nM; in test [2], not below 19800 nM; at S1PR2 it was 873 nM; in test [3], not below 19800 nM; in test [4], 348 nM. Also, the IC50 with HFL-1 cells [5] came out at 652 nM.

For `CCOc1cc(NC(=O)NCc2cc(C)c(-c3cn(CCOC)nc3C(F)(F)F)nn2)cc(C(F)(F)F)n1` [Compound 53, 1-[2-ethoxy-6-(trifluoromethyl)-4-pyridyl]-3-[[6-[1-(2-methoxyethyl)-3-(trifluoromethyl)pyrazol-4-yl]-5-methyl-pyridazin-3-yl]methyl]urea], the EC50 in the test with HFL-1 cells [1] was 6.6 nM; in test [2], 6610 nM; on S1PR2, 52.4 nM; in test [3], 4020 nM; in test [4] it was 10 nM. For the same molecule, the IC50 with HFL-1 cells [5] was 51.2 nM.

On to `Cc1cc(NC(=O)NCc2cc(C)c(-c3cn(C)nc3C(F)(F)F)nn2)cc(OCC(F)F)n1` [Compound 75, 1-[2-(2,2-difluoroethoxy)-6-methyl-4-pyridyl]-3-[[5-methyl-6-[1-methyl-3-(trifluoromethyl)pyrazol-4-yl]pyridazin-3-yl]methyl]urea], for which the EC50 in the test on HFL-1 cells [1] was 38 nM; in test [2], 2890 nM; on S1PR2, 282 nM; in test [3] it was not below 19800 nM; in test [4] it was 59 nM. For the same molecule, the IC50 in the test on HFL-1 cells [5] is 223 nM.

Take `COc1cc(CNC(=O)Nc2cc(Cl)nc(OCC(F)F)c2)nnc1-c1cn(C)nc1C(F)(F)F` [Compound 64, 1-[2-chloro-6-(2,2-difluoroethoxy)-4-pyridyl]-3-[[5-methoxy-6-[1-methyl-3-(trifluoromethyl)pyrazol-4-yl]pyridazin-3-yl]methyl]urea]: the EC50 in the test on HFL-1 cells [1] turned out to be 16.6 nM; in test [2] it was 4380 nM; on S1PR2, 48.7 nM; in test [3], 1620 nM; in test [4] it was 8.5 nM. Besides, the IC50 in the test on HFL-1 cells [5] was 119 nM.
